“And” between values parts separate entries of the source, which are not always exact repeats. Equal entries are not always repeated. Where two headings read alike, the source gives them in different places. One block for each molecule: values may come before it.
Columns and labels:
human TPST1 [1] = target: T1, human TPST1 (Homo sapiens, UniProt O60507); assay: GST-CC4-tide tyrosine sulfation by TPST1, immunoblotting with monoclonal sulfotyrosine antibody; format: biochemical; details: for Inhibition of GST-CC4-tide tyrosine sulfation by TPST1 (immunoblot, in words): GST-CC4-tide 1 µg, 10 µM PAPS, increasing concentrations of inhibitor
T1 construct: human TPST1 (residues Lys43–Leu360) and TPST2 (residues Gly43–Leu359) enzymes lacking the transmembrane domains; made in house; host or cells: E. coli BL21 (DE3) pLysS
T1 sequence (O60507 43-360): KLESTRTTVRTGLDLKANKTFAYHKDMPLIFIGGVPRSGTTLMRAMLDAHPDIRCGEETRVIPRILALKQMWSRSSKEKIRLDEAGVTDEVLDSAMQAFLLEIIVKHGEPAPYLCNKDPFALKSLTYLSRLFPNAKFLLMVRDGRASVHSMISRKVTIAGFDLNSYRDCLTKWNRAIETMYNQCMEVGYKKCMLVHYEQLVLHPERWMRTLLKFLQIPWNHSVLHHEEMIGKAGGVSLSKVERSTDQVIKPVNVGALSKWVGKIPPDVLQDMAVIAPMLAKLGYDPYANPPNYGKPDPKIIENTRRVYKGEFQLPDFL
Description: After the assay, proteins were denatured in Laemmli sample buffer, heated at 95°C for 5 min and then analysed by SDS–PAGE with 10% (v/v) polyacrylamide gels. Gels were stained and destained using a standard Coomassie Brilliant Blue protocol. To evaluate protein sulfation and phosphorylation by immunoblotting, standard western blotting procedures were followed using monoclonal anti-sulfotyrosine antibody clone Sulfo-1C-A2 (Millipore) generated using a phage display procedure and sulfotyrosine selection peptide antigens in the presence of appropriate positive and negative controls, and modifications visualised using the ECL reagent.

human TPST1 [2] = target: T1, human TPST1; assay: EZ Reader II microfluidic mobility-shift CC4-tide sulfation assay, TPST1; format: biochemical; details: for IC50 / TPST1 inhibition at 400 μM: 10 µM PAPS; for TPST1 inhibition at 400 μM: Fig 8A, inhibitor 400 µM; for inhibition at 20 µM: read-out: TPST1 enzyme inhibition, PKIS screen; for Sensitivity of TPST1 inhibition to the concentration of PAPS: increasing PAPS, fixed 20 µM PAP or 100 µM ATP, CoA, dephospho-CoA
human TPST2 = target: T2, human TPST2 (Homo sapiens, UniProt O60704); assay: Differential scanning fluorimetry (thermal shift) assay with TPST2; format: binding; details: DSF, TPST2 5 µM; for Thermal shift of TPST2 (in words): panel of nucleotide-based cofactors; for Thermal shift of TPST2 in the presence of Mg2+ ions (in words): 0.5 mM nucleotide + 10 mM MgCl2
T2 construct: TPST2 (residues Gly43–Leu359) enzymes lacking the transmembrane domains; made in house; host or cells: E. coli BL21 (DE3) pLysS
T2 sequence (O60704 43-359): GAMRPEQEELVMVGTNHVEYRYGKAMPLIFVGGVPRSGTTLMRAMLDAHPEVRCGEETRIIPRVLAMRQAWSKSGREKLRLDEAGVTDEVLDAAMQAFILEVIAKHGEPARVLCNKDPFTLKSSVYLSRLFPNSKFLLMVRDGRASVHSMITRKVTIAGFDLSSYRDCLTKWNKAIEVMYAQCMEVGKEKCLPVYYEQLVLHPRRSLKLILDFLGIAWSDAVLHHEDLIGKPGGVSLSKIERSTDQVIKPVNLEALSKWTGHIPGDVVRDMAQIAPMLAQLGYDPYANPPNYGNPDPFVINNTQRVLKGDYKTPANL

human TPST1 [3] = target: T1, human TPST1; assay: Differential scanning fluorimetry (thermal shift) assay with TPST1; format: binding; details: TPST1 5 µM; for Thermal shift of TPST1 (in words) / ΔTm TPST1 / Thermal shift of TPST1 in the presence of Mg2+ ions (in words): DSF; for Thermal shift of TPST1 (in words) / ΔTm TPST1: 0.5 mM nucleotide; for Thermal shift of TPST1 (in words): panel of nucleotide-based cofactors; for ΔTm TPST1: relative to buffer control; for Thermal shift of TPST1 in the presence of Mg2+ ions (in words): 0.5 mM nucleotide + 10 mM MgCl2
[4] = tested on: heparin sulfate 2-O sulfotransferase HS2ST; design: method as in PMID 29934491; details: cited from earlier work
TPST1 = details: read-out: Km for PAPS, TPST1, literature reports; cited from earlier work
TPST2 = details: cited from earlier work
[5] = substrate: Nc1ncnc2c1ncn2C1OC(COP(=O)(O)OS(=O)(=O)O)C(OP(=O)(O)O)C1O; assay: EZ Reader II microfluidic mobility-shift CC4-tide sulfation assay, TPST1; format: biochemical, human; details: other: CC4-tide 2 µM, TPST1 0.1 µM, four independent experiments; pH 7.4
[6] = Fig 7C, TPST1 0.1 µM, CC4-tide, 30 min at 37°C, duplicate, read-out: TPST1 estimated IC50, PKIS inhibitors
[7] = Fig 8B, TPST1 0.1 µM pre-incubated with compound, read-out: TPST1 estimated IC50, RAF kinase inhibitors
[8] = Fig 5A, CC4-tide, 0.1 µM TPST1, absence of MgCl2, read-out: IC50 TPST1, panel of nucleotides

Molecule: O=C1Nc2ccc(I)cc2C1=Cc1cc(Br)c(O)c(Br)c1 [GW305074X]
Inhibition of GST-CC4-tide tyrosine sulfation by TPST1 (immunoblot, in words) (human TPST1 [1]): low-micromolar inhibitor
IC50 (human TPST1 [2]; [6]): ~5 µM

TPST1 inhibition at 400 μM (human TPST1 [2]; TPST1 0.1 µM, duplicate): essentially complete TPST1 inhibition
IC50 (human TPST1 [2]; [7]): 119 µM
Molecule: CNC(=O)c1cc(Oc2ccc(NC(=O)Nc3ccc(Cl)c(C(F)(F)F)c3)cc2)ccn1 [Sorafenib, sorafenib]

inhibition at 20 µM (human TPST1 [2]): > 40%
Molecule: Cc1cc(-c2ccco2)cc(C)c1/C=C/c1cncc(-c2nn[nH]n2)c1 [GW458344A]

Thermal shift of TPST2 (in words) (human TPST2; 0.5 mM nucleotide): marked stabilisation
Sensitivity of TPST1 inhibition to the concentration of PAPS (human TPST1 [2]; CC4-tide): highly sensitive
IC50 (human TPST1 [2]; [8]): 1.5 µM
Thermal shift of TPST1 (in words) (human TPST1 [3]): marked stabilisation
ΔTm TPST1 (human TPST1 [3]): ~10 °C
Molecule: Nc1ncnc2c1ncn2C1OC(COP(=O)(O)O)C(OP(=O)(O)O)C1O (centres unmarked) [PAP, adenosine 3′–5′-diphosphate]

IC50 (human TPST1 [2]; [8]): 379 µM
Molecule: Nc1ncnc2c1ncn2[C@@H]1O[C@H](COP(=O)(O)OP(=O)(O)OP(=O)(O)O)[C@@H](O)[C@H]1O [ATP, adenosine 5′-triphosphate]

Thermal shift of TPST2 (in words) (human TPST2; 0.5 mM nucleotide): marked stabilisation
Sensitivity of TPST1 inhibition to the concentration of PAPS (human TPST1 [2]; CC4-tide): highly sensitive
IC50 (human TPST1 [2]; [8]): 87 µM and 87.3 µM
Thermal shift of TPST1 (in words) (human TPST1 [3]): marked stabilisation
ΔTm TPST1 (human TPST1 [3]): ~11 °C
Molecule: CC(C)(COP(=O)(O)OP(=O)(O)OC[C@H]1O[C@@H](n2cnc3c(N)ncnc32)[C@H](O)[C@@H]1OP(=O)(O)O)[C@@H](O)C(=O)NCCC(=O)NCCS [CoA, coenzyme A]

Molecule: O=C(O)C1=CC(=C(c2ccc(O)c(C(=O)O)c2)c2ccc(O)c(C(=O)O)c2)C=CC1=O [Aurintricarboxylic acid, aurintricarboxylic acid]
HS2ST inhibition in vitro (in words) [4]: inhibitory activity

IC50 (human TPST1 [2]; [6]): 6 µM
Molecule: Nc1nc(-c2ccc3c(c2)C(=Cc2cc(Br)c(O)c(Br)c2)C(=O)N3)cs1 [GW407323A]

ΔTm TPST2 (human TPST2; 0.5 mM nucleotide, relative to buffer control): ~9 °C
ΔTm TPST1 (human TPST1 [3]): ~3 °C
Molecule: Nc1ncnc2c1ncn2C1OC(COP(=O)(O)OS(=O)(=O)O)C(OP(=O)(O)O)C1O (centres unmarked) [PAPS, adenosine 3′-phosphate 5′-phosphosulfate]
Km (TPST1): 2 to 5 µM
Km (TPST2; read-out: Km for PAPS, TPST2 obtained from transfected CHO cell medium): 12 µM
Km (TPST2; read-out: Km for PAPS, recombinant TPST2 isolated from baculovirus-infected insect cells): ~5 µM

inhibition at 20 µM (human TPST1 [2]): > 40%
Molecule: CNC(=O)c1cncc(/C=C/c2ccccc2Cl)c1 [GW445017X]

IC50 (human TPST1 [2]; [6]): > 40 µM
Molecule: COC(=O)c1ccc2c(c1)C(=Cc1cc(Br)c(O)c(Br)c1)C(=O)N2 [GW405841X]

IC50 (human TPST1 [2]; [7]): > 400 µM
Molecule: CCCS(=O)(=O)Nc1ccc(F)c(C(=O)c2c[nH]c3ncc(Cl)cc23)c1F [PLX-4720]

inhibition at 20 µM (human TPST1 [2]): > 40%
Molecule: CNC(=O)c1cncc(/C=C/c2ccccc2C)c1 [GW445015X]

TPST1 inhibition at 400 μM (human TPST1 [2]; TPST1 0.1 µM, duplicate): essentially complete TPST1 inhibition
IC50 (human TPST1 [2]; [7]): 253 µM
Molecule: Cc1ccc(NC(=O)c2cccc(N(C)C)c2)cc1NC(=O)c1ccc(O)cc1 [ZM336372]

Thermal shift of TPST2 in the presence of Mg2+ ions (in words) (human TPST2): abolished
Thermal shift of TPST2 (in words) (human TPST2; 0.5 mM nucleotide): marked stabilisation
Thermal shift of TPST1 in the presence of Mg2+ ions (in words) (human TPST1 [3]): abolished
Thermal shift of TPST1 (in words) (human TPST1 [3]): marked stabilisation
Molecule: Nc1ncnc2c1ncn2[C@@H]1O[C@H](COP(=O)(O)OP(=O)(O)O)[C@@H](O)[C@H]1O [ADP, adenosine 5′-diphosphate]

Thermal shift of TPST2 (in words) (human TPST2; 0.5 mM nucleotide): marked stabilisation
Thermal shift of TPST1 (in words) (human TPST1 [3]): marked stabilisation
Molecule: CC(=O)SCCNC(=O)CCNC(=O)[C@H](O)C(C)(C)COP(=O)(O)OP(=O)(O)OC[C@H]1O[C@@H](n2cnc3c(N)ncnc32)[C@H](O)[C@@H]1OP(=O)(O)O [acetyl CoA]

TPST1 inhibition at 400 μM (human TPST1 [2]; TPST1 0.1 µM, duplicate): essentially complete TPST1 inhibition
IC50 (human TPST1 [2]; [7]): 269 µM
Molecule: CC(C)(C)c1nc(-c2cccc(NS(=O)(=O)c3c(F)cccc3F)c2F)c(-c2ccnc(N)n2)s1 [Dabrafenib, dabrafenib]

Inhibition of GST-CC4-tide tyrosine sulfation by TPST1 (immunoblot, in words) (human TPST1 [1]): dose-dependent inhibition
TPST1 inhibition at 400 μM (human TPST1 [2]; TPST1 0.1 µM, duplicate): essentially complete TPST1 inhibition
IC50 (human TPST1 [2]; [7]): 6.5 µM
Molecule: Cn1c(Nc2ccc(C(F)(F)F)cc2)nc2cc(Oc3ccnc(-c4ncc(C(F)(F)F)[nH]4)c3)ccc21 [RAF265]
HS2ST inhibition in vitro (in words) [4]: did not inhibit HS2ST at any concentration tested
Mode of TPST1 inhibition with respect to PAPS (immunoblot densitometry) (human TPST1 [1]; GST-CC4-tide, increasing PAPS concentration): partially competitive mode of inhibition with PAPS

TPST1 inhibition at 400 μM (human TPST1 [2]; TPST1 0.1 µM, duplicate): essentially complete TPST1 inhibition
IC50 (human TPST1 [2]; [7]): 42.9 µM and ~40 µM
Molecule: CCCS(=O)(=O)Nc1ccc(F)c(C(=O)c2c[nH]c3ncc(-c4ccc(Cl)cc4)cc23)c1F [Vemurafenib, vemurafenib]

Thermal shift of TPST2 in the presence of Mg2+ ions (in words) (human TPST2): abolished
Thermal shift of TPST2 (in words) (human TPST2; 0.5 mM nucleotide): marked stabilisation
Thermal shift of TPST1 in the presence of Mg2+ ions (in words) (human TPST1 [3]): abolished
Thermal shift of TPST1 (in words) (human TPST1 [3]): marked stabilisation
Molecule: Nc1nc2c(ncn2[C@@H]2O[C@H](COP(=O)(O)OP(=O)(O)OP(=O)(O)O)[C@@H](O)[C@H]2O)c(=O)[nH]1 [GTP, guanosine 5′-triphosphate]

IC50 (human TPST1 [2]; [6]): 9.8 µM
Molecule: O=C1Nc2ccc(-c3cccnc3)cc2C1=Cc1cc(Br)c(O)c(Br)c1 [GW429374A]

Thermal shift of TPST2 (in words) (human TPST2; 0.5 mM nucleotide): unable to induce thermal shifts
Sensitivity of TPST1 inhibition to the concentration of PAPS (human TPST1 [2]; CC4-tide): largely insensitive
IC50 (human TPST1 [2]; [8]): 166 µM
Thermal shift of TPST1 (in words) (human TPST1 [3]): unable to induce thermal shifts
Molecule: CC(C)(COP(=O)(O)OP(=O)(O)OC[C@H]1O[C@@H](n2cnc3c(N)ncnc32)[C@H](O)[C@@H]1O)[C@@H](O)C(=O)NCCC(=O)NCCS [dephospho-CoA, 3′-dephosphoCoA]

IC50 (human TPST1 [2]; [6]): 16 µM
TPST1 DSF screen of PKIS, rank of hit (human TPST1 [3]; 20 µM compound, 4% DMSO, hit cut-off ΔTm ± 0.5°C): top compound
Molecule: O=C1Nc2ccc(C(=O)c3ccco3)cc2C1=Cc1cc(Cl)c(O)c(Cl)c1 [GW406108X]

Thermal shift of TPST2 (in words) (human TPST2; 0.5 mM nucleotide): lack of significant thermal shift
Thermal shift of TPST1 (in words) (human TPST1 [3]): lack of significant thermal shift
Molecule: Nc1ncnc2c1ncn2[C@@H]1O[C@H](COP(=O)(O)O)[C@@H](O)[C@H]1O [AMP, adenosine 5′-monophosphate]

Molecule: Cc1ccc(C(=O)Nc2ccc(S(=O)(=O)O)c3cc(S(=O)(=O)O)cc(S(=O)(=O)O)c23)cc1NC(=O)c1cccc(NC(=O)Nc2cccc(C(=O)Nc3cc(C(=O)Nc4ccc(S(=O)(=O)O)c5cc(S(=O)(=O)O)cc(S(=O)(=O)O)c45)ccc3C)c2)c1 [Suramin, suramin]
HS2ST inhibition in vitro (in words) [4]: inhibitory activity

B1: human TPST1 (Homo sapiens) (protein)
chain: T1 sequence (O60507 43-360)
notes: human TPST1 (residues Lys43–Leu360) and TPST2 (residues Gly43–Leu359) enzymes lacking the transmembrane domains; made in house; host or cells: E. coli BL21 (DE3) pLysS
Km [5]: 6.6 ± 1.9 µM
